# According to ChEMBL document CHEMBL1152860, “Synthesis and antiproliferative activity of 3-amino-N-phenyl-1H-indazole-1-carboxamides” (2009):
# Tests used:
# Format in all cases: functional
# M14 = test: Growth inhibition of human M14 cells after 48 hrs by SRB assay; conditions: M14, 48 h
# SNB-19 = test: Growth inhibition of human SNB19 cells after 48 hrs by SRB assay; conditions: SNB-19, 48 h
# SNB-75 = test: Growth inhibition of human SNB75 cells after 48 hrs by SRB assay; conditions: SNB-75, 48 h
# CCRF-CEM = test: Growth inhibition of human CCRF-CEM cells after 48 hrs by SRB assay
# SW-620 = test: Growth inhibition of human SW620 cells after 48 hrs by SRB assay; conditions: SW-620, 48 h
# MOLT-4 = test: Growth inhibition of human MOLT4 cells after 48 hrs by SRB assay; conditions: MOLT-4, 48 h
# A549 = test: Growth inhibition of human A549 cells after 48 hrs by SRB assay; conditions: A549, 48 h
# MDA-MB-231 = test: Growth inhibition of human MDA-MB-231 cells after 48 hrs by SRB assay; conditions: MDA-MB-231, 48 h
# SF-539 = test: Growth inhibition of human SF539 cells after 48 hrs by SRB assay; conditions: SF-539, 48 h
# SR = test: Growth inhibition of human SR cells after 48 hrs by SRB assay
# SK-OV-3 = test: Growth inhibition of human SKOV3 cells after 48 hrs by SRB assay; conditions: SK-OV-3, 48 h
# COLO 205 = test: Growth inhibition of human COLO205 cells after 48 hrs by SRB assay; conditions: COLO 205, 48 h
# OVCAR-3 = test: Growth inhibition of human OVCAR-3 cells after 48 hrs by SRB assay; conditions: OVCAR-3, 48 h
# UACC-62 = test: Growth inhibition of human UACC62 cells after 48 hrs by SRB assay; conditions: UACC-62, 48 h
# NCI-H23 = test: Growth inhibition of human NCI-H23 cells after 48 hrs by SRB assay; conditions: NCI-H23, 48 h
# NCI-H460 = test: Growth inhibition of human NCI-H460 cells after 48 hrs by SRB assay; conditions: NCI-H460, 48 h
# DU-145 = test: Growth inhibition of human DU145 cells after 48 hrs by SRB assay; conditions: DU-145, 48 h
# CAKI-1 = test: Growth inhibition of human Caki1 cells after 48 hrs by SRB assay; conditions: CAKI-1, 48 h
# OVCAR-5 = test: Growth inhibition of human OVCAR5 cells after 48 hrs by SRB assay; conditions: OVCAR-5, 48 h
# 786-0 = test: Growth inhibition of human 786-0 cells after 48 hrs by SRB assay; conditions: 786-0, 48 h
# RPMI-8226 = test: Growth inhibition of human RPMI8226 cells after 48 hrs by SRB assay; conditions: RPMI-8226, 48 h
# LOX IMVI = test: Growth inhibition of human LOXIMVI cells after 48 hrs by SRB assay
# NCI-H226 = test: Growth inhibition of human NCI-H226 cells after 48 hrs by SRB assay; conditions: NCI-H226, 48 h
# SK-MEL-28 = test: Growth inhibition of human SK-MEL-28 cells after 48 hrs by SRB assay; conditions: SK-MEL-28, 48 h
# SF-295 = test: Growth inhibition of human SF295 cells after 48 hrs by SRB assay; conditions: SF-295, 48 h
# U-251 = test: Growth inhibition of human U251 cells after 48 hrs by SRB assay; conditions: U-251, 48 h
# SK-MEL-2 = test: Growth inhibition of human SK-MEL-2 cells after 48 hrs by SRB assay; conditions: SK-MEL-2, 48 h
# OVCAR-8 = test: Growth inhibition of human OVCAR8 cells after 48 hrs by SRB assay; conditions: OVCAR-8, 48 h
# UACC-257 = test: Growth inhibition of human UACC257 cells after 48 hrs by SRB assay; conditions: UACC-257, 48 h
# BT-549 = test: Growth inhibition of human BT549 cells after 48 hrs by SRB assay; conditions: BT-549, 48 h
# PC-3 = test: Growth inhibition of human PC3 cells after 48 hrs by SRB assay; conditions: PC-3, 48 h
# RXF 393 = test: Growth inhibition of human […] cells after 48 hrs by SRB assay; conditions: RXF 393, 48 h
# T47D = test: Growth inhibition of human T47D cells after 48 hrs by SRB assay
# A498 = test: Growth inhibition of human A498 cells after 48 hrs by SRB assay; conditions: A498, 48 h
# SN12C = test: Growth inhibition of human SN12C cells after 48 hrs by SRB assay
# K562 = test: Growth inhibition of human K562 cells after 48 hrs by SRB assay; conditions: K562, 48 h
# HCT-15 = test: Growth inhibition of human HCT15 cells after 48 hrs by SRB assay; conditions: HCT-15, 48 h
# NCI-H522 = test: Growth inhibition of human NCI-H522 cells after 48 hrs by SRB assay; conditions: NCI-H522, 48 h
# IGROV-1 = test: Growth inhibition of human IGROV1 cells after 48 hrs by SRB assay; conditions: IGROV-1, 48 h
# [1] = Growth inhibition of human Hs 578T cells after 48 hrs by SRB assay
# Malme-3M = test: Growth inhibition of human MALME-3M cells after 48 hrs by SRB assay
# KM12 = test: Growth inhibition of human KM12 cells after 48 hrs by SRB assay; conditions: KM12, 48 h
# UO-31 = test: Growth inhibition of human UO31 cells after 48 hrs by SRB assay; conditions: UO-31, 48 h
# HT-29 = test: Growth inhibition of human HT-29 cells after 48 hrs by SRB assay; conditions: HT-29, 48 h
# OVCAR-4 = test: Growth inhibition of human OVCAR4 cells after 48 hrs by SRB assay; conditions: OVCAR-4, 48 h
# NCI/ADR-RES = test: Growth inhibition of human NCI/ADR-RES cells after 48 hrs by SRB assay
# HCT-116 = test: Growth inhibition of human HCT116 cells after 48 hrs by SRB assay; conditions: HCT-116, 48 h
# NCI-H322M = test: Growth inhibition of human NCI-H322M cells after 48 hrs by SRB assay
# HCC 2998 = test: Growth inhibition of human HCC2998 cells after 48 hrs by SRB assay; conditions: HCC 2998, 48 h
# SK-MEL-5 = test: Growth inhibition of human SK-MEL-5 cells after 48 hrs by SRB assay; conditions: SK-MEL-5, 48 h
# HOP-92 = test: Growth inhibition of human HOP92 cells after 48 hrs by SRB assay; conditions: HOP-92, 48 h
# ACHN = test: Growth inhibition of human ACHN cells after 48 hrs by SRB assay
# HL-60(TB) = test: Growth inhibition of human HL-60(TB) cells after 48 hrs by SRB assay; conditions: HL-60, 48 h
# SF-268 = test: Growth inhibition of human SF268 cells after 48 hrs by SRB assay; conditions: SF-268, 48 h
# EKVX = test: Growth inhibition of human EKVX cells after 48 hrs by SRB assay
# MCF7 = test: Growth inhibition of human MCF7 cells after 48 hrs by SRB assay; conditions: MCF7, 48 h
# HOP-62 = test: Growth inhibition of human HOP62 cells after 48 hrs by SRB assay; conditions: HOP-62, 48 h
# MDA-MB-435 = test: Growth inhibition of human MDA-MB-435 cells after 48 hrs by SRB assay; conditions: MDA-MB-435, 48 h
# TK-10 = test: Growth inhibition of human TK10 cells after 48 hrs by SRB assay; conditions: TK-10, 48 h
compound,measurement,setting,value
COc1ccc(NC(=O)Nc2n[nH]c3ccccc23)cc1,GI50,M14,> 100 µM
same,GI50,SNB-19,> 100 µM
same,GI50,SNB-75,> 100 µM
same,GI50,CCRF-CEM,59.6 µM
same,GI50,SW-620,> 100 µM
same,GI50,MOLT-4,> 100 µM
same,GI50,A549,> 100 µM
same,GI50,MDA-MB-231,> 100 µM
same,GI50,SF-539,> 100 µM
same,GI50,SR,> 100 µM
same,GI50,SK-OV-3,> 100 µM
same,GI50,COLO 205,> 100 µM
same,GI50,OVCAR-3,> 100 µM
same,GI50,UACC-62,> 100 µM
same,GI50,NCI-H23,> 100 µM
same,GI50,NCI-H460,> 100 µM
same,GI50,DU-145,> 100 µM
same,GI50,CAKI-1,> 100 µM
same,GI50,OVCAR-5,> 100 µM
same,GI50,786-0,> 100 µM
same,GI50,RPMI-8226,> 100 µM
same,GI50,LOX IMVI,> 100 µM
same,GI50,NCI-H226,> 100 µM
same,GI50,SK-MEL-28,> 100 µM
same,GI50,SF-295,> 100 µM
same,GI50,U-251,> 100 µM
same,GI50,SK-MEL-2,> 100 µM
same,GI50,OVCAR-8,> 100 µM
same,GI50,UACC-257,> 100 µM
same,GI50,BT-549,> 100 µM
same,GI50,PC-3,> 100 µM
same,GI50,RXF 393,> 100 µM
same,GI50,T47D,100 µM
same,GI50,A498,> 100 µM
same,GI50,SN12C,> 100 µM
same,GI50,K562,> 100 µM
same,GI50,HCT-15,> 100 µM
same,GI50,NCI-H522,> 100 µM
same,GI50,IGROV-1,> 100 µM
same,GI50,[1],> 100 µM
same,GI50,Malme-3M,> 100 µM
same,GI50,KM12,> 100 µM
same,GI50,UO-31,> 100 µM
same,GI50,HT-29,> 100 µM
same,GI50,OVCAR-4,> 100 µM
same,GI50,NCI/ADR-RES,> 100 µM
same,GI50,HCT-116,> 100 µM
same,GI50,NCI-H322M,> 100 µM
same,GI50,HCC 2998,> 100 µM
same,GI50,SK-MEL-5,> 100 µM
same,GI50,HOP-92,> 100 µM
same,GI50,ACHN,> 100 µM
same,GI50,HL-60(TB),> 100 µM
same,GI50,SF-268,> 100 µM
same,GI50,EKVX,> 100 µM
same,GI50,MCF7,> 100 µM
same,GI50,HOP-62,> 100 µM
same,GI50,MDA-MB-435,> 100 µM
same,GI50,TK-10,> 100 µM
